What was measured:
TLR7 = target: T1, TLR7 (Homo sapiens, UniProt Q9NYK1); assay: Reporter gene assay, HEK-Blue TLR7 reporter cells (SEAP)
T1 sequence (Q9NYK1 27-1049): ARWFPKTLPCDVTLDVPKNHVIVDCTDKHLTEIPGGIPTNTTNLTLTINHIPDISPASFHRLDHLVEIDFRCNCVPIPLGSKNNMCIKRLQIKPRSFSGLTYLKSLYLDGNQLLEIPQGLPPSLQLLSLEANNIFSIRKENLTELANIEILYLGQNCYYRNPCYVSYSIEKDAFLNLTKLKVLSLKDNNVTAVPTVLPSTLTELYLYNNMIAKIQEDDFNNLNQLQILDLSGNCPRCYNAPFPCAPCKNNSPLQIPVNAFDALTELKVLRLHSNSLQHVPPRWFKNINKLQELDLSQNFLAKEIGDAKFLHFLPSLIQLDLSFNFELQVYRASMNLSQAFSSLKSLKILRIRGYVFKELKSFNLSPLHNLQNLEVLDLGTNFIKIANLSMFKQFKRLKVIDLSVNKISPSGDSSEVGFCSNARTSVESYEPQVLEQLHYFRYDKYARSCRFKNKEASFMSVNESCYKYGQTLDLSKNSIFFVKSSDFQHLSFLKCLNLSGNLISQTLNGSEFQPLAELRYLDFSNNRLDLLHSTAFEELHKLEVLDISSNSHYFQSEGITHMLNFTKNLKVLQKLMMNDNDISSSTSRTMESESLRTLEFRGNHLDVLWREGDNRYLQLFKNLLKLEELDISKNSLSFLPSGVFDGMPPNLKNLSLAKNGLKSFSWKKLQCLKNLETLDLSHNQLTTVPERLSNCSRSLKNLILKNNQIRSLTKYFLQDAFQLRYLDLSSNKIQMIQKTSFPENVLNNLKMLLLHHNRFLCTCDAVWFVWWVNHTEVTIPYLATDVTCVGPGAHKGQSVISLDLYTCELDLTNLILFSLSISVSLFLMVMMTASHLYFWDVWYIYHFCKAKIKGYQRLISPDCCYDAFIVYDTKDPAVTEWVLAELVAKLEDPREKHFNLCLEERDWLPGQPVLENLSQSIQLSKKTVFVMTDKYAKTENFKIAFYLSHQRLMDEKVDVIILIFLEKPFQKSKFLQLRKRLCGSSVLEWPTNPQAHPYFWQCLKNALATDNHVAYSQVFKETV
Protocol: (§1) 3×10^4 HEK-Blue™ TLR7 or 3×10^4 TLR8 reporter cells (InvivoGen, San Diego, CA) were treated with titrated (4-fold) amounts of test compound. […] Cells were incubated overnight at 37° C. and 5% CO2, then absorbance (620 and 655 nm) was read on a Synergy™ H1 microplate reader.

TLR8 = target: T2, TLR8 (Homo sapiens, UniProt Q9NR97); assay: Reporter gene assay, HEK-Blue TLR8 reporter cells (SEAP)
T2 sequence (Q9NR97 27-1041): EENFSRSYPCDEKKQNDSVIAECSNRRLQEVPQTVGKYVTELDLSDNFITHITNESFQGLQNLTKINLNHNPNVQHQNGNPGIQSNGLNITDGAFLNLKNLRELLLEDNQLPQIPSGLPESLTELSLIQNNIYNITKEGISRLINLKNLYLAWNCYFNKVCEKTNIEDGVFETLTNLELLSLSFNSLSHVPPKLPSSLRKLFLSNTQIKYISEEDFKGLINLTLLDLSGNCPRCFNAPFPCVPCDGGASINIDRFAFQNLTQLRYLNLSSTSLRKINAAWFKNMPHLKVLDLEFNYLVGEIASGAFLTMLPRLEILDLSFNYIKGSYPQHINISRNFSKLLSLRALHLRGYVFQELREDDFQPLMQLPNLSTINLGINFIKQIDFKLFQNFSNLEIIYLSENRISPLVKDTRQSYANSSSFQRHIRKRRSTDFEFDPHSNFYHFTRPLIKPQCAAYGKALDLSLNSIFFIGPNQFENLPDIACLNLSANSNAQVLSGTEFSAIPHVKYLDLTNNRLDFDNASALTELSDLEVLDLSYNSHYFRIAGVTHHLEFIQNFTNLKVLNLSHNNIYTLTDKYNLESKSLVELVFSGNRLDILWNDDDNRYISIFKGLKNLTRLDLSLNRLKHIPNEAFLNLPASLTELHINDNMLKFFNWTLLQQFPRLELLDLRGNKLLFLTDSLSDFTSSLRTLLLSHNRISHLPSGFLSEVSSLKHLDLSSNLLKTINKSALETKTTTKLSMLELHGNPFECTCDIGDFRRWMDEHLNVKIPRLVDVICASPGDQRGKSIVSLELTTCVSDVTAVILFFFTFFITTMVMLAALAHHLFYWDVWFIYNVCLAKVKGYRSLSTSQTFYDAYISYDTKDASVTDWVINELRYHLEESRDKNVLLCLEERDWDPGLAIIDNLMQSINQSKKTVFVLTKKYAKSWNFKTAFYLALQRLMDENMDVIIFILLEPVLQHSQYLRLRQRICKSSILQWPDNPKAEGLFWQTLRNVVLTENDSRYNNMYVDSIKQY
Protocol: as §1

PBMCs = assay: PBMC assay, IL-6 release (HTRF); format: cell-based; details: PBMCs from healthy donors, overnight, IL-6 induction by HTRF, average of quadruplicate
Protocol: Whole peripheral blood was obtained from healthy donors. PBMCs were isolated from peripheral blood by density gradient centrifugation. […] The plasma layer containing PBMCs was poured into a new tube and washed twice. Isolated PBMCs were either used fresh or thawed from previously frozen. 1×10^5 PBMCs were cultured with titrating concentrations of compounds of Formula I overnight followed by assaying for cytokines by homogeneous time resolved fluorescence (HTRF).

Row | EC50 (TLR7) | EC50 (TLR8) | Compound | EC50 (PBMCs)
1 | 444 nM | > 1000 nM | CCCCc1nc2c(N)nc3ccsc3c2n1Cc1ccc(CNCc2ccc(CNC(=O)OC(C)(C)C)cc2)cc1 [Compound 155, tert-butyl (4-(((4-((4-amino-2-butyl-1H-imidazo[4,5-d]thieno[3,2-b]pyridin-1-yl)methyl)benzyl)amino)methyl)benzyl)carbamate] | 110 nM
2 | 8.7 nM | > 1000 nM | CCCCc1nc2c(N)nc3ccsc3c2n1Cc1ccc(CNCCNC(=O)OC(C)(C)C)cc1 [Compound 160, tert-butyl (2-((4-((4-amino-2-butyl-1H-imidazo[4,5-d]thieno[3,2-b]pyridin-1-yl)methyl)benzyl)amino)ethyl)carbamate] | 32 nM
3 | > 1000 nM | > 1000 nM | CCCCc1nc2c(N)nc3ccsc3c2n1Cc1ccc(C=O)cc1 [Compound 164, 4-((4-amino-2-butyl-1H-imidazo[4,5-d]thieno[3,2-b]pyridin-1-yl)methyl)benzaldehyde] | > 1000 nM
4 | 15 nM | > 1000 nM | CCCCc1nc2c(N)nc3ccsc3c2n1Cc1ccc(CN2CCN(CCNC(=O)OC(C)(C)C)CC2)cc1 [Compound 165, tert-butyl (2-(4-(4-((4-amino-2-butyl-1H-imidazo[4,5-d]thieno[3,2-b]pyridin-1-yl)methyl)benzyl)piperazin-1-yl)ethyl)carbamate] | 65 nM
5 | 27 nM | > 1000 nM | CCCCc1nc2c(N)nc3ccsc3c2n1CCCCCO [Compound 172, 5-(4-amino-2-butyl-1H-imidazo[4,5-d]thieno[3,2-b]pyridin-1-yl)pentan-1-ol] | 580 nM
6 | > 1000 nM | > 1000 nM | CCCCc1nc2c(N)nc3ccsc3c2n1CCCCCN=[N+]=[N-] [Compound 173, 1-(5-azidopentyl)-2-butyl-1H-imidazo[4,5-d]thieno[3,2-b]pyridin-4-amine] | > 1000 nM
7 | 21 nM | > 1000 nM | CCCCc1nc2c(N)nc3ccsc3c2n1CCCCCN1CCC(c2ccncc2)CC1 [Compound 174, 2-butyl-1-(5-(4-(pyridin-4-yl)piperidin-1-yl)pentyl)-1H-imidazo[4,5-d]thieno[3,2-b]pyridin-4-amine] | 78 nM
8 | 12 nM | 380 nM | CCCCc1nc2c(N)nc3ccsc3c2n1CCCCCN(CC)CC [Compound 175, 2-butyl-1-(5-(diethylamino)pentyl)-1H-imidazo[4,5-d]thieno[3,2-b]pyridin-4-amine] | 99 nM
9 | 33 nM | > 1000 nM | CCCCc1nc2c(N)nc3ccsc3c2n1CCCCCN1CCN(CCN2CCOCC2)CC1 [Compound 176, 2-butyl-1-(5-(4-(2-morpholinoethyl)piperazin-1-yl)pentyl)-1H-imidazo[4,5-d]thieno[3,2-b]pyridin-4-amine] | 58 nM
10 | 24 nM | 570 nM | CCCCc1nc2c(N)nc3ccsc3c2n1CCCCCNCC(C)(C)N1CCOCC1 [Compound 177, 2-butyl-1-(5-((2-methyl-2-morpholinopropyl)amino)pentyl)-1H-imidazo[4,5-d]thieno [3,2-b]pyridin-4-amine] | 270 nM
11 | 37 nM | > 1000 nM | CCCCc1nc2c(N)nc3ccsc3c2n1CCCCCNCCCCCO [Compound 178, 5-((5-(4-amino-2-butyl-1H-imidazo[4,5-d]thieno[3,2-b]pyridin-1-yl)pentyl)amino) pentan-1-ol] | > 1000 nM
12 | 12 nM | 260 nM | CCCCc1nc2c(N)nc3ccsc3c2n1CCCCCNCc1ccc(CO)cc1 [Compound 179, (4-(((5-(4-amino-2-butyl-1H-imidazo[4,5-d]thieno[3,2-b]pyridin-1-yl)pentyl)amino)methyl)phenyl)methanol] | 76 nM
13 | 83 nM | > 1000 nM | CCCCc1nc2c(N)nc3ccsc3c2n1CCCCCNCC(C)(C)O [Compound 180, 1-((5-(4-amino-2-butyl-1H-imidazo[4,5-d]thieno[3,2-b]pyridin-1-yl)pentyl)amino)-2-methylpropan-2-ol] | 610 nM

Source: patent publication US20250179088A9 (ZYMEWORKS BC INC., priority 2020, published 2025)
